Data reported in patent publication US7351732B2, “Cycloalkanedione derivatives, method for the production thereof and their pharmacological applications” (Schwarz Pharma S.L., priority 2002, dated 2008).

Assays:
[1] = target: T1, 5-HT2A receptors (Rattus norvegicus, UniProt P14842); test: Radioligand displacement, 5-HT2A receptors, [3H]ketanserin; format: binding; conditions: rat cerebral cortex, read-out: Ki ± E.E. 5-HT2A
T1 construct: (b) 5-HT2A receptors, [^3H]ketanserin, rat cerebral cortex; from tissue; host or cells: rat cerebral cortex
T1 sequence (P14842 whole entry): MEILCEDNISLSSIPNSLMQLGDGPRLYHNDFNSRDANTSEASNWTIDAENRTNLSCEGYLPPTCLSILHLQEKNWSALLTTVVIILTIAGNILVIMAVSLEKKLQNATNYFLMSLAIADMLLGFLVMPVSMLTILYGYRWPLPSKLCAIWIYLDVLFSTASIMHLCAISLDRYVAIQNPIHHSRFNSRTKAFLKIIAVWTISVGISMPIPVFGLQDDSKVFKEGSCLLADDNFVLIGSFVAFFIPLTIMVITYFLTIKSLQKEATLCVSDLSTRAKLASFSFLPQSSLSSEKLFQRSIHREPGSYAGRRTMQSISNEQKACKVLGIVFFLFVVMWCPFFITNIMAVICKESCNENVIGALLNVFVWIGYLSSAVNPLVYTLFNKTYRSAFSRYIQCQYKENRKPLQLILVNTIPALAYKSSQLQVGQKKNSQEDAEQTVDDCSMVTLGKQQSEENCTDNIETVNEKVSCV

[2] = target: T2, 5-HT1A (Rattus norvegicus, UniProt P19327); test: Radioligand displacement, 5-HT1A receptors, [3H]-8-OH-DPAT; format: binding; set-up: (a) 5-HT1A receptors, [^3H]-8-OH-DPAT, rat cerebral cortex; from tissue; host or cells: rat cerebral cortex; conditions: rat cerebral cortex, read-out: Ki ± E.E. 5-HT1A
T2 sequence (P19327 1-422): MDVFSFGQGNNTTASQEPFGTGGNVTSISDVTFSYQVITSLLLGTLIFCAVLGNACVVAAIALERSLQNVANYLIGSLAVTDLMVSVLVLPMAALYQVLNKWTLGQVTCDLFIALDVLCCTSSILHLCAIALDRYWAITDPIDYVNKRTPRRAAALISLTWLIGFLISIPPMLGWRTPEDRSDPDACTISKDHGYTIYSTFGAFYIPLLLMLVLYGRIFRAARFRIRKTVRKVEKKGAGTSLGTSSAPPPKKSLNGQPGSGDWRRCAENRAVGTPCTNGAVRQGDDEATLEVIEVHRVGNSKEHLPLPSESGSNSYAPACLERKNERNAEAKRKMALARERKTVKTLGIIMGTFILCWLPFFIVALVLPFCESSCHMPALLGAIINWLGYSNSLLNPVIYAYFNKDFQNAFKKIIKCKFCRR

[3] = target: T3, D2 receptors (Rattus norvegicus, UniProt P61169); test: Radioligand displacement, D2 receptors, [3H]spiperone; format: binding; conditions: rat striatum, read-out: Ki ± E.E. D2
T3 construct: (g) D2 receptors, [^3H]spiperone, rat striatum; from tissue; host or cells: rat striatum
T3 sequence (P61169 whole entry): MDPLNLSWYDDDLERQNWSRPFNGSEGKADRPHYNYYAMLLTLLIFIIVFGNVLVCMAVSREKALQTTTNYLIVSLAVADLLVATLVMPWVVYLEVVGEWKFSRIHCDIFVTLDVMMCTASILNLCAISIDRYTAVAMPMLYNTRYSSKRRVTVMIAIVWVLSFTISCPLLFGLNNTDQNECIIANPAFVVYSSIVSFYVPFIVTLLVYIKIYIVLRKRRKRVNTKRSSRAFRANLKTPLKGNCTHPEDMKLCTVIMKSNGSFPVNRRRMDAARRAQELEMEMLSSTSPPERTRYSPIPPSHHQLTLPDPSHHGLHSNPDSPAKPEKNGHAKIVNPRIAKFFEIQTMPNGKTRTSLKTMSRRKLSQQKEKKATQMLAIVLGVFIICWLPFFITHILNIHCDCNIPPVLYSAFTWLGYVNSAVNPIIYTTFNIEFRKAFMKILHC

[4] = target: T4, 5-HT3 receptors (Rattus norvegicus, UniProt P35563); test: Radioligand displacement, 5-HT3 receptors, [3H]LY 278584; format: binding; conditions: [3H]LY 278584, rat cerebral cortex; read-out: Ki ± E.E. 5-HT3
T4 construct: (c) 5-HT3 receptors, [^3H]LY 278584, rat cerebral cortex; from tissue; host or cells: rat cerebral cortex
T4 sequence (P35563 24-483): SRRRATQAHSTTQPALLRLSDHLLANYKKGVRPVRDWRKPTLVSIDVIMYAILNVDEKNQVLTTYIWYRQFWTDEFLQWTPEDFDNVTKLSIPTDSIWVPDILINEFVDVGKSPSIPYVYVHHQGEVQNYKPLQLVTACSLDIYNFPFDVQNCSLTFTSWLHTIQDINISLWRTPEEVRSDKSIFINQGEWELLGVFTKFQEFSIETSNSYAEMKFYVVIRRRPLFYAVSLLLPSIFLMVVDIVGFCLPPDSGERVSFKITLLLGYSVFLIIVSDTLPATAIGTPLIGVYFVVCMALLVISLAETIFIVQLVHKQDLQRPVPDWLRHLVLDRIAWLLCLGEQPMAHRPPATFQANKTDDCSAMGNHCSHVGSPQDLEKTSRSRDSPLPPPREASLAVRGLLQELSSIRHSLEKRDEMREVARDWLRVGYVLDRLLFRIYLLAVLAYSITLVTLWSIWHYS

[5] = tested on: neurons of the hippocampal area CA1; test: Hyperpolarization of neurons of the hippocampal area CA1; format: cell-based; conditions: dose-effect curves
[6] = target: T5, 5-human HT1A receptor (Homo sapiens, UniProt P08908); test: Test on adenylate cyclase in He-La cells (inhibition of forskolin stimulation); format: cell-based; conditions: for EC50: inhibition of forskolin-stimulated adenylate cyclase, He-La cells transfected with 5-HT1A, read-out: CE50 (the source's name); for % Maximum inhibition: inhibition of the activation induced by forskolin
T5 construct: expressed in transfected cells; host or cells: HeLa cells
T5 sequence (P08908 1-422): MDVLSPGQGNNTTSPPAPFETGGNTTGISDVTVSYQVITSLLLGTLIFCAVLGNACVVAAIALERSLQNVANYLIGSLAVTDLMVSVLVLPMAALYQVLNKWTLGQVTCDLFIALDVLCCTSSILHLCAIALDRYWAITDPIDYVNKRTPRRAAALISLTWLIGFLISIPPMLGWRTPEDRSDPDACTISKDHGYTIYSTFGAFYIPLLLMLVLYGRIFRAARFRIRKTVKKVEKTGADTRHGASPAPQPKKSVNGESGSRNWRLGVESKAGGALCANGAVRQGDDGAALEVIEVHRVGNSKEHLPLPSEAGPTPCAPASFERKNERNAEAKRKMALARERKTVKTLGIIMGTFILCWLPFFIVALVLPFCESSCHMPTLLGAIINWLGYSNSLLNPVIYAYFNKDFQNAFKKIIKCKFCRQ
Source text: The functional character of the new compounds was initially determined by studying their effect on adenylate cyclase in He—La cells transfected with the […], measuring their inhibiting effect on the stimulation of the enzyme induced by forskolin (Table 3 below).

[7] = target: T6, 5-HT4 receptors (Rattus norvegicus, UniProt Q62758); test: Radioligand displacement, 5-HT4 receptors, [3H]GR 113808; format: binding; conditions: [3H]GR 113808, rat striatum; read-out: Ki ± E.E. 5-HT4
T6 construct: (d) 5-HT4 receptors, [^3H]GR 113808, rat striatum; from tissue; host or cells: rat striatum
T6 sequence (Q62758 whole entry): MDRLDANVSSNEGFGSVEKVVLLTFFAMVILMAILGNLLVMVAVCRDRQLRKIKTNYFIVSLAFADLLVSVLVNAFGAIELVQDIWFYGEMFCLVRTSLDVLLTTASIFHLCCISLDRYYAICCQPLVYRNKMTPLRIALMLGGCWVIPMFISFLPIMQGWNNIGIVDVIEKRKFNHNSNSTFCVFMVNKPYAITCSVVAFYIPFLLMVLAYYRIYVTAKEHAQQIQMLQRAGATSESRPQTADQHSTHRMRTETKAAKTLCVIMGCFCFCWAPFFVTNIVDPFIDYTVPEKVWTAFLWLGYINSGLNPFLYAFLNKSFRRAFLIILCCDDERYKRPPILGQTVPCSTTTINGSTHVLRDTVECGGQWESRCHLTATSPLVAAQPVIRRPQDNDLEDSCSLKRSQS

[8] = target: α1 receptors; test: Radioligand displacement, α1 receptors, [3H]prazosin; format: binding; conditions: rat cerebral cortex, read-out: Ki ± E.E. α1
[9] = target: T7, 5-HT7 receptors (Rattus norvegicus, UniProt P32305); test: Radioligand displacement, 5-HT7 receptors, [3H]-5-CT; format: binding; conditions: [3H]-5-CT, rat hypothalamus; read-out: Ki ± E.E. 5-HT7
T7 construct: (e) 5-HT7 receptors, [^3H]-5-CT, rat hypothalamus; from tissue; host or cells: rat hypothalamus
T7 sequence (P32305 whole entry): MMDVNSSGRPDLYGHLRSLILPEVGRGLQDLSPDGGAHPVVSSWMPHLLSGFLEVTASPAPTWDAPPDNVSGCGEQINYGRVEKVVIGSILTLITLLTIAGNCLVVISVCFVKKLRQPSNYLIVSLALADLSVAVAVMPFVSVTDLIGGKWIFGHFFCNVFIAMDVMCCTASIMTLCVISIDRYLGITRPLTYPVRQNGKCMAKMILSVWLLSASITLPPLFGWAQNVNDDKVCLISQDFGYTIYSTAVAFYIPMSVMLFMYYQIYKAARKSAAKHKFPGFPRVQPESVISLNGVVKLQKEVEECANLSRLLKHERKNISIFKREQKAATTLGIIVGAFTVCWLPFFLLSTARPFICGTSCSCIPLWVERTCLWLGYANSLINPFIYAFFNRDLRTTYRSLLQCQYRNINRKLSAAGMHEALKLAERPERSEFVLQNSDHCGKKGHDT

[10] = tested on: 5-HT1A; test: Mouse hypothermia test; format: in vivo
Source text: All compounds previously characterized in vitro as 5-HT1A agonists (Table 3) were delivered by subcutaneous injection to mice in order to quantify the hypothermia associated to stimulation of this serotonergic receptor subtype.

[11] = tested on: primary cultures of rat hippocampus; test: Apoptotic neuronal death induced by serum deprivation; conditions: 24 hours without serum; compared with compound no. 1
Experimental: The neuroprotective effect of the compounds considered was studied in experimental models in vitro, using primary cultures of rat hippocampus exposed to serum deprivation, to a toxic concentration of glutamate, or incubated in conditions of hypoxia and absence of glucose.

[12] = tested on: hippocampal area CA1; test: Transient global ischemia model in gerbils; format: in vivo; conditions: gerbil, 1-5 mg/kg s.c., 30 min before and 24 and 48 h after ischemia
Source text: In the transient ischemia model in gerbils induced by temporary occlusion of both carotid arteries, the delivery of compounds no.

[13] = target: T2, 5-HT1A; test: [35S]-GTPγS fixation test to coronal sections of rat brain; format: biochemical; set-up: fixation test of [^35S]-GTPγS to coronal sections of rat brain; from tissue; host or cells: coronal sections of rat brain; conditions: 10 μM
Experimental: The in vitro agonist character of the new compounds was also evaluated in some cases by the fixation test of [^35S]-GTPγS to coronal sections of rat brain.

SMILES | Ki [1] | Ki [2] | Ki [3] | Ki [4] | Potency in hyperpolarization test compared with 8-OH-DPAT [5] | EC50 [6] | % Maximum inhibition [6] | Ki [7] | Ki [8] | Ki [9] | Minimum effective dosage ([10]; subcutaneous injection, rectal temperature) | Hypothermic effect ([10]; subcutaneous, at minimum effective dose) | Neuroprotective effect in serum deprivation [11] | Prevention of ischemic injury in hippocampal area CA1 (Nissl stain) [12] | [35S]-GTPγS fixation compared with 8-OH-DPAT [13]
O=C1C2SCCN2C(=O)N1CCCCNCC1CCc2ccccc2O1 (racemic) [Compound 2, (±)-2-[4-[(Chroman-2-yl)methylamine]butyl]-1,3-dioxoperhydroimidazo[1,5-b]thiazol] | > 1000 nM | 19.9 ± 6 nM | > 10000 nM | > 10000 nM | indistinguishable in potency to that of the 5-HT1A, 8-OH-DPAT type agonist | 18.9 nM | 94.5% | > 10000 nM |  |  |  |  |  |  | 
O=C1CSC(=O)N1CCCCNCCOc1ccccc1 [Compound 13, 3-[4-[2-(Phenoxy)ethylamine]butyl]-2,4-dioxothiazolidin] | > 10000 nM | 9.8 ± 0.7 nM | > 10000 nM | > 10000 nM |  |  |  | > 1000 nM | 26.9 ± 4.5 nM | 55 ± 0.3 nM |  |  |  |  | 
COc1ccccc1CCCNCCCCN1C(=O)C2CCCN2C1=O (stereo not drawn) [Compound 19, 2-[4-[3-(o-Methoxyphenyl)propylamine]butyl]-1,3-dioxoperhydropyrrolo[1,2-c]imidazol] | > 1000 nM | 73.9 ± 5 nM | > 10000 nM | > 10000 nM |  |  |  | > 10000 nM | > 1000 nM | > 10000 nM |  |  |  |  | 
O=C1C2CCCN2C(=O)N1CCCCNCCOc1ccccc1 (stereo not drawn) [Compound 12, 2-[4-[2-(Phenoxy)ethylamine]butyl]-1,3-dioxoperhydropyrrolo[1,2-c]imidazol] | > 10000 nM | 25.5 ± 0.9 nM | > 1000 nM | > 1000 nM |  | 76.2 nM | 87.4% | > 10000 nM | > 1000 nM | > 1000 nM | 2.5 mg/kg | 1.4 °C | the degree of protection was somewhat below | significantly prevented the injury | 
O=C1CSC(=O)N1CCCCNCC1CCc2ccccc2O1 (racemic) [Compound 4, (±)-3-[4-[(Chroman-2-yl)methylamine]butyl]-2,4-dioxothiazolidin] |  | 30.1 ± 0.6 nM |  |  |  | 11.6 nM | 89.6% |  |  |  |  |  |  |  | 
O=C1C2CSCN2C(=O)N1CCCCNCC1CCc2ccccc2O1 (racemic) [Compound 3, (±)-2-[4-[(Chroman-2-yl)methylamine]butyl]-1,3-dioxoperhydroimidazo[1,5-c]-thiazol] |  | 13.2 ± 1 nM |  |  |  | 31.5 nM | 89.3% |  |  |  |  |  |  |  | especially similar to those obtained with the 5-HT1A, 8-OH-DPAT agonist prototype
COc1ccccc1CCCNCCCN1C(=O)C2CCCN2C1=O (stereo not drawn) [Compound 21, 2-[3-[3-(o-Methoxyphenyl)propylamine]propyl]-1,3-dioxoperhydropyrrolo[1,2-c]imidazol] | > 10000 nM | > 1000 nM | > 10000 nM | > 10000 nM |  |  |  | > 1000 nM | > 1000 nM | > 10000 nM |  |  |  |  | 
O=C1C2CCCN2C(=O)N1CCCCNCCOc1cccc2ccccc12 (stereo not drawn) [Compound 14, 2-[4-[2-(Naphth-1-oxi)ethylamine]butyl]-1,3-dioxoperhydropyrrolo[1,2-c]imidazol] | 41.5 ± 7.5 nM | 2.4 ± 0.6 nM | > 1000 nM | > 1000 nM |  |  |  | > 10000 nM | 30.9 ± 4.9 nM | 42.6 ± 4.4 nM |  |  |  |  | 
O=C1CSC(=O)N1CCCCNCCc1cccc2ccccc12 [Compound 10, 3-[4-[2-(Naphth-1-yl)ethylamine]butyl]-2,4-dioxothiazolidin] | > 1000 nM | 15 ± 1 nM | > 10000 nM | > 1000 nM |  |  |  | > 1000 nM | > 1000 nM | > 10000 nM |  |  |  |  | 
